The values that follow come from patent US20160367557A1, “HE[…] ACID DERIVATIVES WHICH ARE USEFUL IN THE TREATMENT, AMELIORATION OR PREVENTION OF A VIRAL DISEASE” (Savira pharmaceuticals GmbH, priority 2012, published 2016).

Where only a bound is given, the exact number is not on record here.

The subject of the first series is influenza A virus (IAV) A/Aichi/2/68 (H3N2). Description: Cytopathic effect (CPE) assay. The following applies: Influenza A virus, H3N2; MDCK cells, 48 hrs. The format is cell-based. On the technique in general: Cytopathic effects are the visible damage that an infection or toxin causes in cultured cells.
As for `O=C(O)c1cn(Cc2ccccc2-c2ccccc2)c2sc(NCc3ccccc3)nc2c1=O`, the concentration for half-maximal inhibition (IC50) was determined as 19 µM.

Compound `O=C(O)c1cn(Cc2ccccc2-c2ccccc2)c2sc(NS(=O)(=O)c3ccccc3)nc2c1=O` showed an IC50 of 17 µM.

As to `O=C(O)c1cn(Cc2ccccc2-c2ccccc2)c2sc(NC3CC3)nc2c1=O`, it took 31 µM to reach half-maximal inhibition (IC50).

`O=C(O)c1cn(Cc2ccccc2-c2ccccc2)c2sc(NS(=O)(=O)c3cccc(F)c3)nc2c1=O` had a half-maximal inhibitory concentration (IC50) of 19 µM.

In turn, `O=C(O)c1cn(Cc2ccccc2-c2ccccc2)c2sc(NCc3ccc(Cl)cc3)nc2c1=O` displayed an IC50 of 9.3 µM.

`O=C(O)c1cn(Cc2ccccc2-c2ccccc2)c2sc(NCc3cccc(Cl)c3)nc2c1=O` showed an IC50 of 12 µM. The IC50 values of the last two compounds are within 1.5-fold of each other.

Compound `COc1ccc(S(=O)(=O)Nc2nc3c(=O)c(C(=O)O)cn(Cc4ccccc4-c4ccccc4)c3s2)cc1` returned an IC50 of 15 µM.

As for `O=C(O)c1cn(Cc2ccccc2-c2ccccc2)c2sc(NS(=O)(=O)c3ccc(Cl)cc3F)nc2c1=O`, the half-inhibitory concentration (IC50) worked out at 11 µM.

Consider `COc1ccc(CNc2nc3c(=O)c(C(=O)O)cn(Cc4ccccc4-c4ccccc4)c3s2)cc1`, for which it took 11 µM to reach half-maximal inhibition (IC50).

`CC(Nc1nc2c(=O)c(C(=O)O)cn(Cc3ccccc3-c3ccccc3)c2s1)c1ccccc1` (centres unmarked) yielded an IC50 of 24 µM.

`O=C(O)c1cn(Cc2ccccc2-c2ccccc2)c2sc(O)nc2c1=O`: half-maximal inhibition (IC50) required 33 µM.

`CCOC(=O)c1cn(Cc2ccccc2-c2ccccc2)c2sc(NS(=O)(=O)c3ccc(Cl)cc3)nc2c1=O` yielded an IC50 of 23 µM. This IC50 and that of the compound before are within 1.5-fold of each other.

As for `O=C(O)c1cn(C(c2ccccc2)c2ccccc2)c2sc(NS(=O)(=O)c3ccc(Cl)cc3F)nc2c1=O`, the IC50 turned out to be 26 µM.

`CCOC(=O)c1cn(C(c2ccccc2)c2ccccc2)c2sc(NS(=O)(=O)c3ccc(OC)cc3)nc2c1=O` had an IC50 of 36 µM.

On to `CCOC(=O)c1cn(C(c2ccccc2)c2ccccc2)c2sc(NCc3ccc(Cl)cc3)nc2c1=O`, for which the IC50 stood at 45 µM.

`COc1ccc(CNc2nc3c(=O)c(C(=O)O)cn(Cc4ccc(Cl)cc4-c4ccccc4)c3s2)cc1` came in with an IC50 of 22 µM.

The compound `O=C(O)c1cn(C(c2ccccc2)c2ccccc2)c2sc(NCc3cccc(Cl)c3)nc2c1=O` displayed a concentration for half-maximal inhibition (IC50) of 32 µM.

In turn, `COc1ccc(S(=O)(=O)Nc2nc3c(=O)c(C(=O)O)cn(C(c4ccccc4)c4ccccc4)c3s2)cc1` returned a concentration for half-maximal inhibition (IC50) of 31 µM.

The compound `CCOC(=O)c1cn(C(c2ccccc2)c2ccccc2)c2sc(NCc3cccc(Cl)c3)nc2c1=O` registered an IC50 of 27 µM. This IC50 and that of the compound before are within 1.5-fold of each other.

Compound `O=C(O)c1cn(C(c2ccccc2)c2ccccc2)c2sc(O)nc2c1=O` registered an IC50 of 47 µM.

Regarding `O=C(O)c1cn(Cc2ccc(Cl)cc2-c2ccccc2)c2sc(O)nc2c1=O`, the IC50 worked out at 18 µM.

The compound `O=C(O)c1cn(C(c2ccccc2)c2ccccc2)c2sc(NCc3ccccc3)nc2c1=O` returned an IC50 of 14 µM.

In turn, `O=C(O)c1cn(Cc2ccccc2-c2ccccc2)c2sc(NS(=O)(=O)Cc3ccc(Cl)cc3Cl)nc2c1=O` came in with an IC50 of 20 µM.

`COc1ccc(S(=O)(=O)Nc2nc3c(=O)c(C(=O)O)cn(Cc4ccccc4-c4ccc(Cl)cc4)c3s2)cc1` had an IC50 of 8.9 µM.

The compound `N#Cc1ccc(S(=O)(=O)Nc2nc3c(=O)c(C(=O)O)cn(Cc4ccccc4-c4ccc(Cl)cc4)c3s2)cc1` showed an IC50 of 14 µM.

Still in this series, the particulars now being: MDCK cells, 48 hrs.
In the case of `COCCNc1nc2c(=O)c(C(=O)O)cn(Cc3ccccc3-c3ccccc3)c2s1`, the “CPE activity in words” value was “inactive”.

For the compound `CNc1nc2c(=O)c(C(=O)O)cn(Cc3ccccc3-c3ccccc3)c2s1`, the “CPE activity in words” value is “inactive”.

In the case of `CC(C)Nc1nc2c(=O)c(C(=O)O)cn(Cc3ccccc3-c3ccccc3)c2s1`, the “CPE activity in words” value was “inactive”.

Regarding `O=C(O)c1cn(Cc2ccccc2-c2ccccc2)c2sc(N3CCOCC3)nc2c1=O`, the “CPE activity in words” value is “inactive”.

Regarding `CS(=O)(=O)Nc1nc2c(=O)c(C(=O)O)cn(Cc3ccccc3-c3ccccc3)c2s1`, the “CPE activity in words” value was “inactive”.

As for `O=C(O)c1cn(Cc2ccccc2-c2ccccc2)c2scnc2c1=O`, the “CPE activity in words” value was “inactive”.

With `Nc1nc2c(=O)c(C(=O)O)cn(Cc3ccccc3-c3ccccc3)c2s1`, the “CPE activity in words” value was “inactive”.

In the case of `O=C(O)c1c[nH]c2cc(C3CCCC3)nn2c1=O`, the “CPE activity in words” value is “inactive”.

In the case of `CC(C)c1cc2n(CCCc3ccccc3)cc(C(=O)O)c(=O)n2n1`, the “CPE activity in words” value was “inactive”.

`CC(C)c1cc2[nH]cc(C(=O)O)c(=O)n2n1`: the “CPE activity in words” value was “inactive”.

Consider `CS(=O)(=O)n1cc(C(=O)O)c(=O)n2nc(N)cc12`, for which the “CPE activity in words” value is “inactive”.

For `Nc1cc2n(Cc3ccccc3-c3ccccc3)cc(C(=O)O)c(=O)n2n1`, the “CPE activity in words” value is “inactive”.

For the compound `O=C(O)c1cn(Cc2ccccc2-c2ccccc2)c2ccnn2c1=O`, the “CPE activity in words” value was “inactive”.

Consider `Nc1cc2n(S(=O)(=O)c3ccccc3)cc(C(=O)O)c(=O)n2n1`, for which the “CPE activity in words” value was “inactive”.

For the compound `Nc1cc2n(S(=O)(=O)Cc3ccccc3)cc(C(=O)O)c(=O)n2n1`, the “CPE activity in words” value is “inactive”.

Take `O=C(O)c1c[nH]c2ccnn2c1=O` [drawing 207]: the “CPE activity in words” value is “inactive”.

Turning to `O=C(O)c1c[nH]c2nc(NCc3ccccc3)nn2c1=O` [drawing 211], the “CPE activity in words” value was “inactive”.

For the compound `Nc1cc2n(C(=O)C3(c4ccccc4)CCCC3)cc(C(=O)O)c(=O)n2n1` [drawing 213], the “CPE activity in words” value was “inactive”.

As for `O=C(O)c1cn(CCc2cccc(Cl)c2)c2cc(C3CC3)nn2c1=O` [drawing 215], the “CPE activity in words” value is “inactive”.

On to `O=C(O)c1cn(CCc2cccc(F)c2)c2cc(C3CC3)nn2c1=O` [drawing 216], for which the “CPE activity in words” value is “inactive”.

On to `O=C(O)c1cn(CCc2ccccc2)c2cc(C3CCCC3)nn2c1=O` [drawing 218], for which the “CPE activity in words” value is “inactive”.

In the case of `CCOC(=O)c1cn(CCc2ccc(O)cc2)c2cc(C3CC3)nn2c1=O` [drawing 220], the “CPE activity in words” value was “inactive”.

Take `O=C(O)c1cn(CCc2cccc(C(F)(F)F)c2)c2cc(C3CC3)nn2c1=O` [drawing 221]: the “CPE activity in words” value was “inactive”.

For `O=C(O)c1cn(CCc2ccc(O)cc2)c2cc(C3CC3)nn2c1=O` [drawing 222], the “CPE activity in words” value is “inactive”.

Take `COc1ccc(CCn2cc(C(=O)O)c(=O)n3nc(C4CC4)cc23)cc1` [drawing 223]: the “CPE activity in words” value is “inactive”.

Test system in the next series: not given
Test: not given
Settings: not given
In turn, `O=C(O)Cc1c[nH]c2nc(Nc3ccccc3)nn2c1=O` had a melting point of 279 to 281 °C.

Turning to `O=C(O)c1cn(Cc2ccccc2)c2cc(C3CC3)nn2c1=O`, the melting point is 210 to 215 °C.

`O=C(O)c1cn(CCc2ccc(O)cc2)c2cc(C3CC3)nn2c1=O` yielded a melting point of 265 to 270 °C.

As to `O=C(O)c1cn(CCc2ccc(Cl)cc2)c2cc(C3CC3)nn2c1=O`, the melting point fell in the range of 220 to 225 °C.

For `COc1ccc(CCn2cc(C(=O)O)c(=O)n3nc(C4CC4)cc23)cc1`, the melting point is 145 to 150 °C.

As to `O=C(O)c1cn(CCc2cccc(Cl)c2)c2cc(C3CC3)nn2c1=O`, the melting point was 230 to 235 °C.

`O=C(O)c1cn(CCc2cccc(C(F)(F)F)c2)c2cc(C3CC3)nn2c1=O`: the melting point is 200 to 205 °C.

Turning to `O=C(O)c1cn(CCCc2ccccc2)c2cc(C3CC3)nn2c1=O`, the melting point is 95 to 100 °C.

`CC(C)c1cc2n(CCc3ccccc3)cc(C(=O)O)c(=O)n2n1` came in with a melting point of 220 to 225 °C.

Regarding `O=C(O)c1cn(Cc2ccccc2)c2cc(C3CCCC3)nn2c1=O`, the melting point lay in the range of 213 to 215 °C.

Compound `O=C(O)c1cn(CCc2ccccc2)c2cc(C3CCCC3)nn2c1=O` displayed a melting point of 198 to 200 °C.

`O=C(O)Cc1c[nH]c2cc(C(F)(F)F)nn2c1=O` registered a melting point of 320 to 324 °C.

Take `O=C(NCCc1ccc(Cl)cc1)c1cc2[nH]cc(C(=O)O)c(=O)n2n1`: the melting point is > 300 °C.

Regarding `CCOC(=O)c1c[nH]c2nc(NCc3ccccc3)nn2c1=O`, the melting point was in the range of 275 to 278 °C.

For `CCOC(=O)c1c[nH]c2nc(NCc3ccc(Br)cc3)nn2c1=O`, the melting point fell in the range of 286 to 287 °C.

In turn, `CCOC(=O)c1c[nH]c2nc(NCc3cccc4ccccc34)nn2c1=O` gave a melting point of 273 to 275 °C.

In the case of `CCOC(=O)c1c[nH]c2nc(Nc3ccc(C)c(Cl)c3)nn2c1=O`, the melting point is > 340 °C.

On to `CCOC(=O)Cc1c[nH]c2nc(Nc3ccc(OC(C)C)cc3)nn2c1=O`, for which the melting point was 235 to 240 °C.

`CCOC(=O)c1c[nH]c2c(C#N)c(CCCNC)nn2c1=O` came in with a melting point of 285 to 287 °C.

On to `O=C(O)c1c[nH]c2cc(C3CC3)nn2c1=O`, for which the melting point is 275 to 278 °C.

Take `O=C(O)c1c[nH]c2cc(C(F)(F)F)nn2c1=O`: the melting point is > 340 °C.

`CCOC(=O)c1cn(CCc2ccccc2)c2cc(C3CC3)nn2c1=O` returned a melting point of 155 to 160 °C.

As for `CCOC(=O)c1cn(CCc2ccc(O)cc2)c2cc(C3CC3)nn2c1=O`, the melting point fell in the range of 95 to 100 °C.

As to `CCOC(=O)c1cn(CCc2cccc(Cl)c2)c2cc(C3CC3)nn2c1=O`, the melting point fell in the range of 160 to 165 °C.

As for `CCOC(=O)c1cn(CCc2ccccc2)c2cc(C(C)C)nn2c1=O`, the melting point was 130 to 135 °C.

`CCOC(=O)c1cn(CCc2ccccc2)c2cc(C3CCCC3)nn2c1=O` yielded a melting point of 162 to 164 °C.

Regarding `CCOC(=O)Cc1c[nH]c2cc(-c3ccccc3)nn2c1=O`, the melting point was in the range of 245 to 250 °C.

Compound `CCOC(=O)Cc1c[nH]c2cc(C(F)(F)F)nn2c1=O` registered a melting point of 290 to 293 °C.

`CCOC(=O)Cc1c[nH]c2cc(C3CC3)nn2c1=O` gave a melting point of 280 to 283 °C.

For `CCOC(=O)Cc1cn(C)c2cc(C3CC3)nn2c1=O`, the melting point was 147 to 150 °C.

As for `CCOC(=O)c1c[nH]c2cc(C(=O)NC3CCN(Cc4ccccc4)CC3)nn2c1=O`, the melting point was in the range of 264 to 266 °C.

Turning to `CCOC(=O)c1c[nH]c2cc(C(=O)NCc3ccccc3)nn2c1=O`, the melting point was 290 to 292 °C.

`O=C(O)c1c[nH]c2nc(NCc3ccccc3)nn2c1=O` registered a melting point of 240 to 245 °C.

A word on the IC50: it is the concentration that gives 50% inhibition. A high value points to a need for much substance. The melting point is the temperature, or range, at which the solid turns liquid.
